Measured values taken from patent US11787800B2, “BRD9 degraders and uses thereof” (Foghorn Therapeutics Inc., priority 2020, dated 2023).

Experiments:
Type in all cases: cell-based
[1] = tested on: synovial sarcoma cell lines (SYO1, Yamato, HS-SY-II, and ASKA); assay: Growth of synovial sarcoma cell lines (IncuCyte confluency, crystal violet staining, colony imaging), Example 3; conditions: FIGS. 5, 6, 7, 1 μM in crystal violet assay
Procedure: (§1) Growth medium and compounds were refreshed every 3-4 days.
(§2) The number of cells was optimized for each cell line. Growth medium and compounds were refreshed every 3-5 days. SYO1, Yamato, A549, 293T and HS-SY-II cells were fixed and stained at day 11. ASKA cells were fixed and stained at day 23. Staining was done by incubation with crystal violet solution (0.5 g Crystal Violet, 27 ml 37% Formaldehyde, 100 mL 10×PBS, 10 mL Methanol, 863 dH20 to 1 L) for 30 min followed by 3× washes with water and drying the plates for at least 24 h at room temperature. Subsequently plates were scanned on an Odyssey CLx Imaging system (FIG. 6).
(§3) Cells were seeded into 96-well ultra low cluster plate (Costar, #7007) in 200 μL complete media and treated at day 2 with DMSO, Staurosporin, or BRD9 degarder, Compound 1, at indicated doses (FIG. 7). Media and compounds were changed every 5 d and cell colonies were imaged at day 14.

[2] = tested on: non-synovial control cancer cell lines (293T, A549, G401); assay: Growth of non-synovial control cancer cell lines, Example 3; conditions: FIGS. 5, 6, 7
Procedure: as §1, §2, §3

[3] = tested on: synovial sarcoma cell lines (SYO1, HS-SY-II, and ASKA); assay: Crystal violet growth assay, day 14, synovial sarcoma cell lines, Example 4; conditions: for growth of synovial sarcoma cell lines: SYO1, HS-SY-II, ASKA, daily treatment, day 14, crystal violet, FIGS. 8 and 9
Procedure: (§4) Procedure: Cells were seeded into 6-well or 12-well plates and were treated daily with a BRD9 degrader (Compound 1), a bromo-domain BRD9 binder (Compound 2), E3 ligase binder (lenalidomide), DMSO, or staurosporin (positive control for cell killing), at indicated concentrations. The number of cells was optimized for each cell line. Growth media was refreshed every 5 days. By day 14, medium was removed, cells were washed with PBS, and stained using 500 μL of 0.005% (w/v) crystal violet solution in 25% (v/v) methanol for at least 1 hour at room temperature. Subsequently plates were scanned on an Odyssey CLx Imaging system.

[4] = tested on: non-synovial control cancer cell lines (RD, HCT116, and Calu6); assay: Crystal violet growth assay, day 14, non-synovial control cancer cell lines, Example 4; conditions: daily treatment, day 14, crystal violet, FIGS. 8 and 9
Procedure: as §4

[5] = tested on: SYO1 cells; assay: Cell cycle analysis, Click-iT Plus EdU Flow Cytometry Assay; conditions: 200 nM or 1 μM, 8 or 13 days, compared to DMSO and lenalidomide
Procedure: (§5) Compounds were refreshed every 5 days. Cell cycle analysis was performed using the Click-iT™ Plus EdU Flow Cytometry Assay (Invitrogen). The apoptosis assay was performed using the Annexin V-FITC Apoptosis Detection Kit (Sigma A9210). Assays were performed according to the manufacturer's protocol.

[6] = tested on: SYO1 cells; assay: Apoptosis assay, Annexin V-FITC Apoptosis Detection Kit; conditions: 200 nM or 1 μM, 8 days, compared to DMSO controls
Procedure: as §5

COc1cc(-c2cn(C)c(=O)c3cnccc23)cc(OC)c1CN(C)CC(=O)NCCOCCOCCNc1cccc2c1C(=O)N(C1CCC(=O)NC1=O)C2=O (centres unmarked) [Compound A]
growth of synovial sarcoma cell lines [1]: inhibition of the growth of the cells
growth of non-synovial control cancer cell lines [2]: does not result in inhibition of the growth
growth of synovial sarcoma cell lines [3]: inhibition of the growth of the cells
growth inhibition compared among the test agents ([3]; all synovial cell lines): most significant growth inhibition
growth of non-synovial control cancer cell lines [4]: did not result in inhibition of the growth
numbers of cells in the S-phase of the cell cycle [5]: reduced numbers of cells in the S-phase
numbers of early- and late-apoptotic cells [6]: increased numbers of early- and late-apoptotic cells

COc1cc(-c2cn(C)c(=O)c3cnccc23)cc(OC)c1CN(C)C [Compound B]
growth of synovial sarcoma cell lines [1]: inhibition of the growth of the cells
growth of non-synovial control cancer cell lines [2]: does not result in inhibition of the growth
growth of synovial sarcoma cell lines [3]: inhibition of the growth of the cells
growth of non-synovial control cancer cell lines [4]: did not result in inhibition of the growth
